≈ marks a conversion by molar mass, not a printed value. Like-named read-outs stand apart in the source and are kept apart here.
How the values were obtained:
[1] = Cytotoxicity assay (HepG2, CellTiter-Blue); format: cell-based; details: human; HepG2 cells, 3 days treatment; >100 = detection limit
Description: The cytotoxicity of compounds of present invention was assessed by HepG2 assay. HepG2 cells (ATCC RB-8065™) were seeded into 96-well plates (1.2×10^4 cells per well) and treated with compounds for 3 days, cell viability was measured at day 3 post compound treatment using the CellTiter-Blue® Cell Viability Assay (Promega, Cat. No. G8082). […], of Cell titer blue buffer were added to each well of the cells, which were incubated for 3 hours at 37° C., and the fluorescence value was measured by a plate reader (Molecular Device SpectraMax M2). The CC50 value of each compound is plotted with GraphPad Prism using four parameter logistic equation.

[2] = system: multiple species and strains; assay: microbe, parasite or virus in culture; set-up: MIC S9 / MIC S7 / MIC S11 / MIC S8 / MIC S10: unit not given beside the values; details: for MIC S9: E. coli ATCC 35218
Description: The MIC of antibacterial compounds against multiple species and strains was determined using the broth microdilution method according to M07-A10 Clinical and Laboratory Standards Institute (CLSI) guidelines (CLSI (2015) Methods for dilution antimicrobial susceptibility tests for bacteria that grow aerobically; Approved Standard, Tenth Edition. CLSI Document M7-A10 (ISBN 1-56238-987-4). Wayne, Pa.: Clinical and Laboratory Standards Institute, 19087, USA.). In short, bacterial strain preparation was performed on D1 and D2. […] 5-10 well-isolated colonies of similar morphology were selected and re-streaked onto fresh agar plates using sterile loops and incubated for 20-24 hr at 35±2° C. Bacterial strains were subcultured two times to ensure fresh inoculums for MIC screening. […] Alternatively, 1-2 colonies were transferred into 500 μL of saline and OD600 was adjusted to ˜0.1 using an OD meter. Bacterial inoculum was diluted by 1:280 for Gram-positive strains and 1:400 for Gram-negative strains into corresponding medium broth (CAMHB, CAMHB+3% lysed horse blood, HTM) (e.g. 35.6 μL of inoculum into 10 mL of CAMHB or 25 μL of inoculum into 10 mL of CAMHB). For compound plate, the compound stock solutions were prepared in 100% DMSO on the day of MIC screening and used immediately. Compound stock concentration=[(highest testing concentration)×100 μL/2 μL] (e.g. if the required highest testing concentration is 64 μg/mL in assay plates, stock concentration=64 μg/mL×100 μL/2 μL=3.2 mg/mL). […] 1 μL of each well was transferred in a new MTP, which served as the test plate by subsequent inoculation. The bacterial suspension prepared above is dispensed at 98 μL/well within 15 minutes after preparation. Negative controls (lack of bacterial cells) and growth control wells (lack of compound) were included in all plates. MTPs were incubated for 18-24 hours at 35±2° C. in ambient air. The MIC was recorded and CFUs were calculated on Day 4. The assay plate was placed on the top of MIC reader, and the magnification mirror was adjusted to read each wells, recording growth status as raw data. Photo images of each assay plates were recorded using Q Count 530 (Spiral Biotech). The MIC value of each compound, expressed as μg/mL, was determined as the lowest concentration required for complete growth inhibition (no visible growth).

S. aureus (ATCC29213) = assay: 50% growth inhibitory concentration (IC50) determination assay, S. aureus; format: cell-based; details: Staphylococcus aureus, ATCC29213; Iso-Sensitest broth, growth by OD 600 nm over 16 h; <0.098 = detection limit
Description: (§1) The in vitro antimicrobial activity of the compounds against S. aureus (ATCC29213), K. pneumoniae (ATCC10031), and A. baumannii (ATCC17978), was determined according to the following procedure: The assay used a 10-points Iso-Sensitest broth medium to measure quantitatively the in vitro activity of the compounds against S. aureus ATCC29213, K. pneumoniae ATCC 10031, and A. baumannii ATCC17978. Stock compounds in DMSO were serially two-fold diluted (range from 50 to 0.097 μM final concentration) in 384 wells microtiter plates and inoculated with 49 μL the bacterial suspension in Iso-Sensitest broth medium to have a final cell concentration of ˜5×10^5 CFU/mL in a final volume/well of 50 μL/well. Microtiter plates were incubated at 35±2° C. Bacterial cell growth was determined with the measurement of optical density at λ=600 nm each 20 minutes over a time course of 16 h.

[3] = system: K. pneumoniae (ATCC10031); assay: 50% growth inhibitory concentration (IC50) determination assay, K. pneumoniae; format: cell-based; details: Klebsiella pneumoniae, ATCC10031; Iso-Sensitest broth, growth by OD 600 nm over 16 h; <0.098 = detection limit
Description: as §1

A. baumannii (ATCC17978) = assay: 50% growth inhibitory concentration (IC50) determination assay, A. baumannii; format: cell-based; details: Acinetobacter baumannii, ATCC17978; Iso-Sensitest broth, growth by OD 600 nm over 16 h; <0.098 = detection limit
Description: as §1

[4] = Acinetobacter baumannii, ATCC19606, read-out: MIC S1, A. baumannii ATCC 19606
[5] = Acinetobacter baumannii, ATCC51432, read-out: MIC S2, A. baumannii ATCC 51432
[6] = Acinetobacter baumannii, ATCCBAA747, read-out: MIC S3, A. baumannii ATCC BAA-747
[7] = Escherichia coli, ATCC25922, read-out: MIC S11, E. coli ATCC 25922
[8] = Escherichia coli, ATCCBAA2340, read-out: MIC S10, E. coli ATCC BAA-2340
[9] = Klebsiella pneumoniae, ATCC10031, read-out: MIC S4, K. pneumoniae ATCC 10031
[10] = Klebsiella pneumoniae, ATCC700603, read-out: MIC S5, K. pneumoniae ATCC 700603
[11] = Klebsiella pneumoniae, ATCCBAA2146, read-out: MIC S6, K. pneumoniae ATCC BAA-2146
[12] = Pseudomonas aeruginosa, ATCC27853, read-out: MIC S7, P. aeruginosa ATCC 27853
[13] = Pseudomonas aeruginosa, ATCCBAA2113, read-out: MIC S8, P. aeruginosa ATCC BAA-2113

IC50 (S. aureus (ATCC29213)) [nM]	IC50 [3] [nM]	IC50 (A. baumannii (ATCC17978)) [nM]	SMILES	CC50 at 3 days [1] [nM]	MIC [2, 4] [µg/mL]	MIC [2, 5] [µg/mL]	MIC [2, 6] [µg/mL]	MIC S9 [2]	MIC [2, 7] [µg/mL]	MIC [2, 8] [µg/mL]	MIC [2, 9] [µg/mL]	MIC [2, 10] [µg/mL]	MIC [2, 11] [µg/mL]	MIC [2, 12] [µg/mL]	MIC [2, 13] [µg/mL]
–	–	–	CNc1cc(F)c(Cl)c2c1[nH]c1ncc(-c3ccc4ccc(C(=O)O)c(=O)n4c3)c(N3CC[C@@]4(C[C@@H]4N)C3)c12 (single isomer, unassigned) [Example 5.01A]	> 100000	1.03 (≈ 1.88 µM)	1.03 (≈ 1.88 µM)	1.03 (≈ 1.88 µM)	0.516	0.194 (≈ 0.355 µM)	0.516 (≈ 0.943 µM)	0.032 (≈ 0.0585 µM)	2.07 (≈ 3.78 µM)	4.13 (≈ 7.55 µM)	2.07 (≈ 3.78 µM)	2.07 (≈ 3.78 µM)
159	< 98	< 98	CNc1cc(F)cc2c1[nH]c1ncc(-c3ccc4ccc(C(=O)O)c(=O)n4c3)c(N3CCOCC3)c12 [Example 1.02, 7-(6-fluoro-8-(methylamino)-4-morpholino-9H-pyrido[2,3-b]indol-3-yl)-4-oxo-4H-quinolizine-3-carboxylic acid]	24100	–	–	–	–	–	–	–	–	–	–	–
103	< 98	< 98	CNc1cc(F)c(C#N)c2c1[nH]c1ncc(-c3ccc4ccc(C(=O)O)c(=O)n4c3)c(N3CC4C(N(C)C)CO[C@@H]4C3)c12 (stereo partly drawn) [Example 1.15, 7-[5-cyano-4-[cis-3-(dimethylamino)-2,3,3a,4,6,6a-hexahydrofuro[2,3-c]pyrrol-5-yl]-6-fluoro-8-(methylamino)-9H-pyrido[2,3-b]indol-3-yl]-4-oxo-quinolizine-3-carboxylic acid]	75400	–	–	–	–	–	–	–	–	–	–	–
< 98	< 98	< 98	CNc1cc(F)c(F)c2c1[nH]c1ncc(-c3ccc4ccc(C(=O)O)c(=O)n4c3)c(N3CC[C@@]4(C[C@H]4N)C3)c12 [Example 4.01B, 7-(4-((1R,3R)-1-amino-5-azaspiro[2.4]heptan-5-yl)-5,6-difluoro-8-(methylamino)-9H-pyrido[2,3-b]indol-3-yl)-4-oxo-4H-quinolizine-3-carboxylic acid]	> 100000	–	–	–	–	–	–	–	–	–	–	–
–	–	–	CNc1cc(F)c(Cl)c2c1[nH]c1ncc(-c3ccc4ccc(C(=O)O)c(=O)n4c3)c(N3CC[C@]4(C[C@H]4N)C3)c12 [Example 5.01B, 7-(4-((1R,3S)-1-amino-5-azaspiro[2.4]heptan-5-yl)-5-chloro-6-fluoro-8-(methylamino)-9H-pyrido[2,3-b]indol-3-yl)-4-oxo-4H-quinolizine-3-carboxylic acid]	> 100000	0.516 (≈ 0.943 µM)	1.03 (≈ 1.88 µM)	1.03 (≈ 1.88 µM)	0.516	0.097 (≈ 0.177 µM)	0.516 (≈ 0.943 µM)	0.032 (≈ 0.0585 µM)	4.13 (≈ 7.55 µM)	4.13 (≈ 7.55 µM)	2.07 (≈ 3.78 µM)	2.07 (≈ 3.78 µM)

SMILES	IC50 (S. aureus (ATCC29213)) [nM]	IC50 [3] [nM]	IC50 (A. baumannii (ATCC17978)) [nM]	CC50 at 3 days [1] [nM]	MIC [2, 4] [µg/mL]	MIC [2, 5] [µg/mL]	MIC [2, 6] [µg/mL]	MIC S9 [2]	MIC [2, 7] [µg/mL]	MIC [2, 8] [µg/mL]	MIC [2, 9] [µg/mL]	MIC [2, 10] [µg/mL]	MIC [2, 11] [µg/mL]	MIC [2, 12] [µg/mL]	MIC [2, 13] [µg/mL]
CNc1cc(F)c(F)c2c1[nH]c1ncc(-c3ccc4ccc(C(=O)O)c(=O)n4c3)c(N3CC[C@@H]4CCN(C)[C@@H]4C3)c12 [Example 3.04B, 7-[4-[(3aS,7aS)-1-methyl-3,3a,4,5,7,7a-hexahydro-2H-pyrrolo[2,3-c]pyridin-6-yl]-5,6-difluoro-8-(methylamino)-9H-pyrido[2,3-b]indol-3-yl]-4-oxo-quinolizine-3-carboxylic acid]	< 98	< 98	< 98	10800	0.436 (≈ 0.781 µM)	0.436 (≈ 0.781 µM)	0.436 (≈ 0.781 µM)	0.436	0.164 (≈ 0.294 µM)	1.75 (≈ 3.13 µM)	0.027 (≈ 0.0483 µM)	1.75 (≈ 3.13 µM)	1.75 (≈ 3.13 µM)	0.873 (≈ 1.56 µM)	1.75 (≈ 3.13 µM)
CNc1cc(F)c(F)c2c1[nH]c1ncc(-c3ccc4ccc(C(=O)O)c(=O)n4c3)c(N3CC[C@]4(C[C@H]4N)C3)c12 [Example 4.01C, 7-(4-((1R,3S)-1-amino-5-azaspiro[2.4]heptan-5-yl)-5,6-difluoro-8-(methylamino)-9H-pyrido[2,3-b]indol-3-yl)-4-oxo-4H-quinolizine-3-carboxylic acid]	< 98	< 98	< 98	> 100000	0.592 (≈ 1.12 µM)	0.592 (≈ 1.12 µM)	1.19 (≈ 2.24 µM)	0.592	0.222 (≈ 0.418 µM)	1.19 (≈ 2.24 µM)	0.074 (≈ 0.139 µM)	2.37 (≈ 4.47 µM)	2.37 (≈ 4.47 µM)	1.19 (≈ 2.24 µM)	2.37 (≈ 4.47 µM)
